# Experimental data from patent US7834024B2, “Compositions and methods for inhibition of the JAK pathway” (Rigel Pharmaceuticals, Inc., priority 2007, dated 2010).
# System: Ramos B-Cell Line Stimulated with IL-4 (JAK-1 and JAK-3 / Stat-6, CD23)
# Test: Assay for Ramos B-Cell Line Stimulated with IL-4 (CD23 upregulation, FACS)
# Format: cell-based
# Settings: Homo sapiens, Ramos, human Ramos B cells, compound 1 hour, IL-4 50 units/mL for 20-24 hours, anti-CD23-PE FACS; read-out: Example 2 (IC50)
# Summary of the method: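 Human Ramos B cells (5×10^4 per point, RPMI with 5% serum) pre-incubated 1 hour at 37° C with compound or DMSO, then stimulated with IL-4 at 50 units/mL final for 20-24 hours. CD23 upregulation measured by flow cytometry.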
row,IC50 [nM],SMILES
1,144,"COc1cc(Nc2nc(Nc3ccc4oc(C(=O)NCCN5CCOCC5)cc4c3)ncc2F)ccc1Cl [III-2, N4-(4-Chloro-3-methoxyphenyl)-5-fluoro-N2-[2-(2-(N-morpholinyl)ethylaminocarbonyl)benzofuran-5-yl]-2,4-pyrimidinediamine]"
2,174,"CCc1cc(Nc2ncc(F)c(Nc3ccc4c(c3)NC(=O)CS4)n2)cc(C#N)c1Cl [II-23, N2-(4-Chloro-3-cyano-5-ethylphenyl)-5-fluoro-N4-(3-oxo-2H,4H-benzo[1,4]thiazin-6-yl)-2,4-pyrimidinediamine]"
3,144,"CC1(C)Oc2ccc(Nc3nc(Nc4ccc5oc(C(=O)NCCN6CCOCC6)cc5c4)ncc3F)nc2NC1=O [Compound V-1, N4-[2,2-Dimethyl-3-oxo-4H-5-pyrido[1,4]oxazin-6-yl]-5-fluoro-N2-[2-(2-(N-morpholinyl)ethylaminocarbonyl)benzofuran-5-yl]-2,4-pyrimidinediamine]"
4,1740,"CCc1cc(Nc2ncc(F)c(Nc3ccc4c(c3)NC(=O)C(F)(F)O4)n2)cc(C#N)c1Cl [II-24, N2-(4-Chloro-3-cyano-5-ethylphenyl)-N4-(2,2-difluoro-3-oxo-4H-benzo[1,4]oxazin-6-yl)-5-fluoro-2,4-pyrimidinediamine]"
5,1970,CNC(=O)COc1cccc(Nc2ncc(N)c(Nc3ccc4cn[nH]c4c3)n2)c1 [Compound V-4]
6,5.43,"CN1C(=O)CSc2ccc(Nc3nc(Nc4ccc(C(N)=O)cc4)ncc3F)cc21 [II-4, N2-(4-Aminocarbonylphenyl)-5-fluoro-N4-(4-methyl-3-oxo-2H-benzo[1,4]thiazin-6-yl)-2,4-pyrimidinediamine]"
7,73.4,"Cc1cnc(Nc2cccc(C#N)c2)nc1Nc1ccc2c(c1)NC(=O)CS2 [II-9, N2-(3-Cyanophenyl)-5-methyl-N4-(3-oxo-2H,4H-benzo[1,4]thiazin-6-yl)-2,4-pyrimidinediamine]"
8,355,"C#CCOc1ccc(Nc2nc(Nc3ccc4c(c3)C(=O)NCC4)ncc2F)cc1 [Compound V-2, 5-Fluoro-N2-(1-oxo-1,2,3,4-tetrahydroisoquinolin-7-yl)-N4-[4-(2-propynyloxy)phenyl]-2,4-pyrimidinediamine]"

# Continued, compound first:
row,SMILES,IC50 [nM]
1,"NC(=O)c1ccc(Nc2ncc(F)c(Nc3cccc(-c4ncco4)c3)n2)cc1 [Compound I-13, N2-(4-Aminocarbonylphenyl)-5-fluoro-N4-[3-(oxazol-2-yl)phenyl]-2,4-pyrimidinediamine]",752
2,"Cc1cc(Nc2nc(Nc3ccc(C(N)=O)c(Cl)c3)ncc2F)ccc1N1CCN(C)CC1 [Compound I-11, N2-(4-Aminocarbonyl-3-chlorophenyl)-5-fluoro-N4-[3-methyl-4-(4-methylpiperazin-1-yl)phenyl]-2,4-pyrimidinediamine]",56.3
3,"CN1CCN(C(=O)c2ccc(Nc3ncc(F)c(Nc4ccc(OCC(N)=O)cc4)n3)cc2)CC1 [Compound I-36, N4-(4-Aminocarbonylmethoxyphenyl)-5-fluoro-N2-[4-((4-methylpiperazin-1-yl)carbonyl)phenyl]-2,4-pyrimidinediamine]",3020
4,"N#CCOc1ccc(Nc2nc(Nc3ccc(C#N)cc3)ncc2F)cc1 [Compound I-29, N2-(4-Cyanophenyl)-N4-(4-cyanomethoxyphenyl)-5-fluoro-2,4-pyrimidinediamine]",74.6
5,"NC(=O)COc1cccc(Nc2nc(Nc3ccc(C(N)=O)cc3)ncc2F)c1 [Compound I-32, N4-(3-Aminocarbonylmethoxyphenyl)-N2-(4-aminocarbonylphenyl)-5-fluoro-2,4-pyrimidinediamine]",184
6,"Cc1noc(COc2ccc(Nc3nc(Nc4cccc(C#N)c4)ncc3F)cc2)n1 [Compound I-111, N2-(3-Cyanophenyl)-5-fluoro-N4-[4-((3-methyl-1,2,4-oxadiazol-5-yl)methoxy)phenyl]-2,4-pyrimidinediamine]",1050
7,"N#CCc1ccc(Nc2nc(Nc3ccc(C(N)=O)cc3)ncc2F)cc1 [Compound I-67, N2-(4-Aminocarbonylphenyl)-N4-(4-cyanomethylphenyl)-5-fluoro-2,4-pyrimidinediamine]",171
8,"Cc1cc(Nc2nc(Nc3cccc(C(N)=O)c3)ncc2F)cc(C)c1OC(C)C#N (centres unmarked) [Compound I-96, N2-(3-Aminocarbonylphenyl)-N4-[4-(1-cyanoethoxy)-3,5-dimethylphenyl]-5-fluoro-2,4-pyrimidinediamine]",255
9,"C#CCOc1ccc(Nc2nc(Nc3cccc(C(N)=S)c3)ncc2F)cc1 [Compound I-5, N2-(3-Aminocarbonothioylphenyl)-5-fluoro-N4-[4-(2-propynyloxy)phenyl]-2,4-pyrimidinediamine]",1150
10,"Cc1nc(COc2ccc(Nc3nc(Nc4ccc(N5CCN(C)CC5)c(C(N)=O)c4)ncc3F)cc2)no1 [Compound I-62, N2-[3-Aminocarbonyl-4-(4-methylpiperazin-1-yl)phenyl]-5-fluoro-N4-[4-((5-methyl-1,2,4-oxadiazol-3-yl)methoxy)phenyl]-2,4-pyrimidinediamine]",80.5
11,"N#CCOc1cccc(Nc2nc(Nc3cccc(C#N)c3)ncc2F)c1 [Compound I-47, N4-(3-Cyanomethoxyphenyl)-N2-(3-cyanophenyl)-5-fluoro-2,4-pyrimidinediamine]",173
12,"Cc1cc(Nc2nc(Nc3ccc(C(N)=O)cc3)ncc2F)ccc1OC(C)C#N (centres unmarked) [Compound I-92, N2-(4-Aminocarbonylphenyl)-N4-[4-(1-cyanoethoxy)-3-methylphenyl]-5-fluoro-2,4-pyrimidinediamine]",127
13,"Cc1cc(Nc2nc(Nc3ccc(CC#N)cc3)ncc2F)ccc1OCC#N [Compound I-86, N4-(4-Cyanomethoxy-3-methylphenyl)-N2-(4-cyanomethylphenyl)-5-fluoro-2,4-pyrimidinediamine]",142
14,"Cc1cc(Nc2nc(Nc3ccc(C(N)=O)cc3)ncc2F)cc(C)c1OC(C)C#N (centres unmarked) [Compound I-95, N2-(4-Aminocarbonylphenyl)-N4-[4-(1-cyanoethoxy)-3,5-dimethylphenyl]-5-fluoro-2,4-pyrimidinediamine]",103
15,"C#CCOc1ccc(Nc2nc(Nc3cccc(C(N)=O)c3)ncc2F)cc1 [Compound I-6, N2-(3-Aminocarbonylphenyl)-5-fluoro-N4-[4-(2-propynyloxy)phenyl]-2,4-pyrimidinediamine]",2770
16,"Cc1cc(Nc2nc(Nc3cccc(C(N)=O)c3)ncc2F)ccc1OC(C)C#N (centres unmarked) [Compound I-93, N2-(3-Aminocarbonylphenyl)-N4-[4-(1-cyanoethoxy)-3-methylphenyl]-5-fluoro-2,4-pyrimidinediamine]",331
17,"N#CCOc1cccc(Nc2nc(Nc3ccc(C#N)cc3)ncc2F)c1 [Compound I-46, N4-(3-Cyanomethoxyphenyl)-N2-(4-cyanophenyl)-5-fluoro-2,4-pyrimidinediamine]",1470

# Same assay, conditions: human Ramos B cells, compound 1 hour, IL-4 50 units/mL for 20-24 hours, anti-CD23-PE FACS; read-out: Example 2 (IC50)
row,IC50 [nM],SMILES
1,130,"CNC(=O)COc1cc(Nc2ncc(F)c(Nc3ccc4c(n3)NC(=O)C(C)(C)O4)n2)cc(OC)c1OC [II-21, N2-[4,5-Dimethoxy-3-(N-methylaminocarbonylmethyleneoxy)phenyl]-N4-(2,2-dimethyl-3-oxo-4H-5-pyrido[1,4]oxazin-6-yl)-5-fluoro-2,4-pyrimidinediamine]"
2,672,"CNC(=O)COc1cccc(Nc2ncc(F)c(Nc3ccc4c(c3)N(Cc3ccccn3)C(=O)CO4)n2)c1 [II-14, 5-Fluoro-N2-[3-(N-methylaminocarbonylmethyleneoxy)phenyl]-N4-[3-oxo-4-(2-pyridinylmethyl)-2H-benzo[1,4]oxazin-6-yl]-2,4-pyrimidinediamine]"
3,110,"CNC(=O)COc1cc(Nc2ncc(F)c(Nc3ccc4c(c3)NC(=O)CO4)n2)cc(OC)c1OC [II-22, N2-[4,5-Dimethoxy-3-(N-methylaminocarbonylmethyleneoxy)phenyl]-5-fluoro-N4-(3-oxo-2H,4H-benzo[1,4]oxazin-6-yl)-2,4-pyrimidinediamine]"
4,480,"CNC(=O)COc1cc(Nc2ncc(F)c(Nc3ccc4c(c3)NC(=O)C(F)(F)O4)n2)cc(OC)c1OC [II-20, N4-(2,2-Difluoro-3-oxo-4H-benzo[1,4]oxazin-6-yl)-N2-[4,5-Dimethoxy-3-(N-methylaminocarbonylmethyleneoxy)phenyl]-5-fluoro-2,4-pyrimidinediamine]"
5,80.9,"CNC(=O)COc1cccc(Nc2ncc(Br)c(Nc3ccc4c(c3)OCCO4)n2)c1 [II-1, 5-Bromo-N4-(3,4-ethylenedioxyphenyl)-N2-[3-(N-methylaminocarbonylmethyleneoxy)phenyl]-2,4-pyrimidinediamine]"
6,163,"Cc1cnc(Nc2cccc(C(N)=O)c2)nc1Nc1ccc2c(n1)NC(=O)C(C)(C)O2 [II-40, N2-(3-Aminocarbonylphenyl)-N4-(2,2-dimethyl-3-oxo-4H-5-pyrido[1,4]oxazin-6-yl)-5-methyl-2,4-pyrimidinediamine]"

# Further lines, the compound ahead of its results:
row,SMILES,IC50 [nM]
1,"CN1CCN(C(=O)c2ccc(Nc3ncc(F)c(Nc4ccc(CC#N)cc4)n3)cc2)CC1 [Compound I-73, N4-(4-Cyanomethylphenyl)-5-fluoro-N2-[4-((4-methylpiperazin-1-yl)carbonyl)phenyl]-2,4-pyrimidinediamine]",1730
2,"CCn1nccc1NC(=O)c1ccc(Nc2ncc(F)c(Nc3ccc(OC)c(Cl)c3)n2)cc1 [Compound I-3, N4-(3-Chloro-4-methoxyphenyl)-N2-[4-((I-ethyl-1H-pyrazol-5-yl)aminocarbonyl)phenyl]-5-fluoro-2,4-pyrimidinediamine]",119
3,"CCN(CC)CCNC(=O)c1ccc(Nc2ncc(F)c(Nc3ccc(OCc4ccccn4)cc3)n2)cc1 [Compound I-135, N2-[4-(2-(N,N-Diethylamino)ethylaminocarbonyl)phenyl)-5-fluoro-N4-[4-(2-pyridinylmethyleneoxy)phenyl]-2,4-pyrimidinediamine]",56
4,"CCN(CC)CCNC(=O)c1ccc(Nc2ncc(F)c(Nc3ccc(OCc4cc(C)on4)cc3)n2)cc1 [Compound I-127, N2-[4-(2-(N,N-Diethylamino)ethylaminocarbonyl)phenyl]-5-fluoro-N4-[4-((5-methylisoxazol-3-yl)methyleneoxy)phenyl]-2,4-pyrimidinediamine]",9.33
